{"source": "patent US20230405075A1", "about": "“PR[…] EXTRACT OR ITS ISOLATED ALKALOIDS AND CANNABIS EXTRACT OR ITS ISOLATED CANNABINOIDS, AND COSMETIC AND/OR PHARMACEUTICAL USE THEREOF” (HERBA INVEST, PTE. LTD., priority 2020, published 2023)"}
{"test": "Franz cell diffusion assay, transcutaneous permeation", "format": "in vitro ADME, porcine", "details": "in the presence of the combined extracts", "method": "The transcutaneous permeation of w/o creams according to Examples 2 and 3 were evaluated by using the Franz cell diffusion assay and compared with the permeation of w/o creams containing Mitragyna alkaloids only and Cannabis cannabinoids only, according to examples 4 and 5.\nAs known, Franz cell diffusion assay is the most common and reliable method to evaluate the transcutaneous permeation of molecules. Such an assay is well known in the art and a detailed description is not necessary.\nThe assay conditions were as follows: • cells used: 0.9 and 1.4 mm diameter. • membrane: porcine ear skin, 1 mm thickness. • temperature of incubation: 32° C.\nThe results of the evaluations are shown in FIG. 1, where the different bars relate to: • a cream according to Example 4, with 1% Mitragyna alkaloids; • a cream according to Example 5, with 1% cannabinoids; • a cream according to Example 2, containing 0.5% purified Mitragyna alkaloids and 0.5% cannabinoids; • a cream with enhancer according to Example 3, also containing 0.5% purified Mitragyna alkaloids and 0.5% cannabinoids, • respectively.\nThe particular w/o cream according to Example 2 used in the evaluation of transcutaneous permeation had the following composition (percentages in weight): • Diisostearoyl Polyglyceryl-3 Dimer Dilinoleate: 3% • Synthetic Beeswax: 0.2% • Hydrogenated Castor Oil: 0.3% • Paraffinum liquidum: 7% • Isopropyl Myristate: 7% • Hydrogenated polyisobutene: 7.5% • Aqua (water): 60% • Magnesium sulphate heptahydrate: 1% • Mitragyna purified extract (or isolated alkaloids) alcoholic solution: the amount/concentration resulting in a 0.5% alkaloid concentration of in the final formulation; • Cannabis purified extract (or isolated cannabinoids) alcoholic solution: the amount/concentration resulting in a 0.5% […] concentration in the final formulation."}
{"smiles": "CC[C@@H]1CN2CCc3c([nH]c4cccc(OC)c34)[C@H]2C[C@@H]1/C(=C\\OC)C(=O)OC", "note": "[speciociliatine]", "concentration detected in Franz cell receptor (order of selective passage)": "highest concentrations detected"}
{"smiles": "C=C[C@H]1CN2CCc3c([nH]c4cccc(OC)c34)[C@@H]2C[C@@H]1/C(=C\\OC)C(=O)OC", "note": "[paynantheine]", "concentration detected in Franz cell receptor (order of selective passage)": "in lower percentage"}
{"smiles": "C=C(C)[C@@H]1CCC(C)=C[C@H]1c1c(O)cc(CCCCC)cc1O", "note": "[cannabidiol]", "concentration detected in Franz cell receptor (order of selective passage)": "increase in concentration"}
{"smiles": "C=C[C@H]1CN2CCc3c([nH]c4cccc(OC)c34)[C@H]2C[C@@H]1/C(=C\\OC)C(=O)OC", "note": "[isopaynantheine]", "concentration detected in Franz cell receptor (order of selective passage)": "highest concentrations detected"}
{"smiles": "CC[C@@H]1CN2CCc3c([nH]c4cccc(OC)c34)[C@@H]2C[C@@H]1/C(=C\\OC)C(=O)OC", "note": "[mitragynine]", "concentration detected in Franz cell receptor (order of selective passage)": "in lower percentage"}
